Numbered stars: 1 amine (or outer) side, 2 acyl side, 3 side chain; on linkers, the order of the positions; unused ones are H or OH. Bridge positions count the residues as written; N and C are the ends. Square brackets hold non-standard residues; d marks the D form. Peptide text beside a SMILES is read from it. * marks the point of attachment. hPhe(3,5-F2-4-CF3) = N[C@@H](CCc1cc(F)c(C(F)(F)F)c(F)c1)C(=O)O; hPhe(3-Cl-4-CF3) = N[C@@H](CCc1ccc(C(F)(F)F)c(Cl)c1)C(=O)O; NMePhe(4-CF3) = CN[C@@H](Cc1ccc(C(F)(F)F)cc1)C(=O)O; Thiomorpholino(1,1-dioxo) = O=S1(=O)CCN(*)CC1; X126 = O=C([C@H](Cc1cc(F)cc(I)c1)N[*:1])[*:2]; NMeAbu(4,4,4-F3) = CN[C@@H](CC(F)(F)F)C(=O)O; NMePhe(4-Me) = CN[C@@H](Cc1ccc(C)cc1)C(=O)O; NMePhe(4-F) = CN[C@@H](Cc1ccc(F)cc1)C(=O)O; NMeGly(cPent) = CN[C@H](C(=O)O)C1CCCC1; Phe(3-I) = N[C@@H](Cc1cccc(I)c1)C(=O)O; Pro(4,4-F2) = O=C(O)[C@@H]1CC(F)(F)CN1; NMeY = CN[C@@H](Cc1ccc(O)cc1)C(=O)O; NMeCha = CN[C@@H](CC1CCCCC1)C(=O)O; NMehLeu = CN[C@@H](CCC(C)C)C(=O)O; NMeChg = CN[C@H](C(=O)O)C1CCCCC1; NMeD = CN[C@@H](CC(=O)O)C(=O)O; NMeL = CN[C@@H](CC(C)C)C(=O)O; NMeNva = CCC[C@H](NC)C(=O)O; NMeV = CN[C@H](C(=O)O)C(C)C; d(β3hA) = C[C@@H](N)CC(=O)O; NMeAbu = CC[C@H](NC)C(=O)O; Morpholide = C1CN(*)CCO1; NMeA = CN[C@@H](C)C(=O)O; NMeAib = CNC(C)(C)C(=O)O; Nle = CCCC[C@H](N)C(=O)O; Piperidide = C1CCN(*)CC1; Pra = C#CC[C@H](N)C(=O)O; Pyrrolidide = C1CCN(*)C1; Ac5c = NC1(C(=O)O)CCCC1; Aze = O=C(O)[C@@H]1CCN1; Sar = CNCC(=O)O

This assay concerns Human pancreatic cancer cell line AsPC-1 (G12D mutation Kras). In words: AsPC-1 cell growth inhibition (AsPC-1 CGI). Type of assay: cell-based. To be noted: read-out: AsPC-1 cell growth inhibition, 50% growth inhibitory concentration (IC50 value); 96 hours, CellTiter-Glo, values classified in ranges. Background: In ATP-based viability assays light output follows the ATP content of the culture.
Method: Test compounds were serially dilated with dimethyl sulfoxide, and 200 nL was then dispensed to a U-bottom 96-well plate using Labcyte Echo. […] The cell suspension was dispensed to a. plate containing a test compound at 100 μL per well and incubated at 37° C. in a 5% carbon dioxide gas incubator. 96 hours later, 80 μL of CellTiter-Glo (Promega) was added to each well and fluorescence was measured.
Consider `CCCC[C@@H]1NC(=O)[C@H](Cc2cc(F)cc(I)c2)NC(=O)CN(C)C(=O)[C@H](Cc2ccc(OC)cc2)N(C)C(=O)[C@@H]2CCN2C(=O)[C@H](C)N(C)C(=O)[C@H]([C@@H](C)CC)NC(=O)[C@H](CC)N(C)C(=O)C[C@@H](C(=O)N2CCCCC2)N(C)C(=O)[C@H](CC(C)C)NC(=O)C(C)(C)N(C)C1=O` [Compound 1226] ([NMeAbu]I[NMeA][Aze][NMeY](Me)[Sar][X126][Nle][NMeAib]L[NMeD]-Piperidide; lactam N-11), for which the IC50 is more than 500 nM.

For the molecule `C#CC[C@@H]1NC(=O)[C@H](Cc2cccc(I)c2)NC(=O)CN(C)C(=O)[C@H](Cc2ccc(F)cc2)N(C)C(=O)[C@@H]2CCN2C(=O)[C@H](C)N(C)C(=O)[C@H]([C@@H](C)CC)NC(=O)[C@H](CC(C)C)N(C)C(=O)C[C@@H](C(=O)N2CCCCC2)N(C)C(=O)[C@H](CC(C)C)NC(=O)C(C)(C)N(C)C1=O` [Compound 1230] ([NMeL]I[NMeA][Aze][NMePhe(4-F)][Sar][Phe(3-I)][Pra][NMeAib]L[NMeD]-Piperidide; lactam N-11), the IC50 was more than 500 nM.

Turning to `CCC[C@H]1C(=O)N[C@@H]([C@@H](C)CC)C(=O)N(C)CC(=O)N(C)CC(=O)N(C)[C@@H](CC2CCCCC2)C(=O)N(C)CC(=O)N[C@@H](CCc2ccc(C(F)(F)F)c(Cl)c2)C(=O)N2CC(F)(F)C[C@H]2C(=O)NC2(CCCC2)C(=O)N(C)[C@@H](C2CCCCC2)C(=O)N(C)[C@H](C(=O)N2CCCC2)CC(=O)N1C` [Compound 1232] ([NMeNva]I[Sar][Sar][NMeCha][Sar][hPhe(3-Cl-4-CF3)][Pro(4,4-F2)][Ac5c][NMeChg][NMeD]-Pyrrolidide; lactam N-11), the IC50 was not above 20 nM.

On to `CC[C@H](C)[C@@H]1NC(=O)[C@H](CCC(C)C)N(C)C(=O)C[C@@H](C(=O)N2CCOCC2)N(C)C(=O)[C@H](C2CCCC2)N(C)C(=O)C2(CCCC2)NC(=O)[C@@H]2CCCN2C(=O)[C@H](CCc2ccc(C(F)(F)F)c(Cl)c2)NC(=O)CN(C)C(=O)[C@H](C2CCCC2)N(C)C(=O)[C@@H]2CCN2C(=O)[C@H](C)N(C)C1=O` [Compound 1237] ([NMehLeu]I[NMeA][Aze][NMeGly(cPent)][Sar][hPhe(3-Cl-4-CF3)]P[Ac5c][NMeGly(cPent)][NMeD]-Morpholide; lactam N-11), for which the IC50 is not above 20 nM.

In the case of `CC[C@H](C)[C@@H]1NC(=O)[C@H](CC(C)C)N(C)C(=O)C[C@@H](C(=O)N2CCS(=O)(=O)CC2)N(C)C(=O)[C@H](C(C)C)N(C)C(=O)C2(CCCC2)NC(=O)[C@@H]2CCCN2C(=O)[C@H](CCc2ccc(C(F)(F)F)c(Cl)c2)NC(=O)CN(C)C(=O)[C@H](CC2CCCCC2)N(C)C(=O)[C@@H]2CCN2C(=O)[C@H](C)N(C)C1=O` [Compound 1238] ([NMeL]I[NMeA][Aze][NMeCha][Sar][hPhe(3-Cl-4-CF3)]P[Ac5c][NMeV][NMeD]-{Thiomorpholino(1,1-dioxo)}; lactam N-11), the IC50 is more than 500 nM.

On to `CC[C@H](C)[C@@H]1NC(=O)[C@H](CC(C)C)N(C)C(=O)C[C@@H](C)NC(=O)[C@H](C)N(C)C(=O)C2(CCCC2)NC(=O)[C@@H]2CCCN2C(=O)[C@H](CCc2ccc(C(F)(F)F)c(Cl)c2)NC(=O)CN(C)C(=O)[C@H](Cc2ccc(C)cc2)N(C)C(=O)[C@@H]2CCN2C(=O)[C@H](C)N(C)C1=O` [Compound 1239] (cyclo([Ac5c][NMeA][d(β3hA)][NMeL]I[NMeA][Aze][NMePhe(4-Me)][Sar][hPhe(3-Cl-4-CF3)]P)), for which the IC50 was more than 500 nM.

For `CC[C@H](C)[C@@H]1NC(=O)[C@H](CC(C)C)N(C)C(=O)C[C@@H](C(=O)N2CCCCC2)N(C)C(=O)[C@H](C(C)C)N(C)C(=O)C2(CCCC2)NC(=O)[C@H](C)N(C)C(=O)[C@H](CCc2ccc(C(F)(F)F)c(Cl)c2)NC(=O)CN(C)C(=O)[C@H](CC2CCCCC2)N(C)C(=O)[C@@H]2CCN2C(=O)[C@H](C)N(C)C1=O` [Compound 1243] ([NMeL]I[NMeA][Aze][NMeCha][Sar][hPhe(3-Cl-4-CF3)][NMeA][Ac5c][NMeV][NMeD]-Piperidide; lactam N-11), the IC50 is more than 500 nM.

For the molecule `CC[C@H](C)[C@@H]1NC(=O)[C@H](CC(F)(F)F)N(C)C(=O)C[C@@H](C(=O)N2CCCC2)N(C)C(=O)[C@H](C2CCCCC2)N(C)C(=O)C2(CCCC2)NC(=O)[C@@H]2CCCN2C(=O)[C@H](CCc2cc(F)c(C(F)(F)F)c(F)c2)NC(=O)CN(C)C(=O)[C@H](Cc2ccc(C(F)(F)F)cc2)N(C)C(=O)CN(C)C(=O)CN(C)C1=O` [Compound 1244] ([NMeAbu(4,4,4-F3)]I[Sar][Sar][NMePhe(4-CF3)][Sar][hPhe(3,5-F2-4-CF3)]P[Ac5c][NMeChg][NMeD]-Pyrrolidide; lactam N-11), the IC50 was not above 20 nM.

Take `CC[C@H](C)[C@@H]1NC(=O)[C@H](CC(F)(F)F)N(C)C(=O)C[C@@H](C(=O)N2CCCC2)N(C)C(=O)[C@H](C2CCCCC2)N(C)C(=O)C2(CCCC2)NC(=O)[C@@H]2CC(F)(F)CN2C(=O)[C@H](CCc2ccc(C(F)(F)F)c(Cl)c2)NC(=O)CN(C)C(=O)[C@H](Cc2ccc(C)cc2)N(C)C(=O)CN(C)C(=O)CN(C)C1=O` [Compound 1245] ([NMeAbu(4,4,4-F3)]I[Sar][Sar][NMePhe(4-Me)][Sar][hPhe(3-Cl-4-CF3)][Pro(4,4-F2)][Ac5c][NMeChg][NMeD]-Pyrrolidide; lactam N-11): the IC50 is not above 20 nM.

For the origin of these results see patent publication US20240148821A1, “PHARMACEUTICAL USE OF CYCLIC PEPTIDE COMPOUND” (CHUGAI SEIYAKU KABUSHIKI KAISHA, priority 2021, published 2024).
